Test system: 422866-222-R5-J1-PDC spheroids with HUVEC/MSC, viability
Test: Anticancer human tumor 422866-222-R5-J1-PDC patient-derived pancreatic adenocarcinoma cell line growth inhibition [GQUAD]
Conditions: for IC50: curve of first compound; for viability, T/C: stronger effect = lower value
How it was run: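 Multi-cell-type spheroids of tumor cells with HUVEC and mesenchymal stem cells, treated with drug combinations. Concentrations descend in half-log steps from near clinical Cmax, or from 10 microM where Cmax is unknown; viability read-out.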

[1] = second compound 0.0316 µM, first compound 0.0316 µM
[2] = second compound 0.0316 µM, first compound 0.1 µM
[3] = second compound 0.0316 µM, first compound 0.316 µM
[4] = second compound 0.0316 µM, first compound 1 µM
[5] = second compound 0.0316 µM, first compound 3.16 µM
[6] = second compound 0.0316 µM, first compound 10 µM
[7] = second compound 0.1 µM, first compound 0.0316 µM
[8] = second compound 0.1 µM, first compound 0.1 µM
[9] = second compound 0.1 µM, first compound 0.316 µM
[10] = second compound 0.1 µM, first compound 1 µM
[11] = second compound 0.1 µM, first compound 3.16 µM
[12] = second compound 0.1 µM, first compound 10 µM
[13] = second compound 0.316 µM, first compound 0.0316 µM
[14] = second compound 0.316 µM, first compound 0.1 µM
[15] = second compound 0.316 µM, first compound 0.316 µM
[16] = second compound 0.316 µM, first compound 1 µM
[17] = second compound 0.316 µM, first compound 3.16 µM
[18] = second compound 0.316 µM, first compound 10 µM
[19] = second compound 1 µM, first compound 0.0316 µM
[20] = second compound 1 µM, first compound 0.1 µM
[21] = second compound 1 µM, first compound 0.316 µM
[22] = second compound 1 µM, first compound 1 µM
[23] = second compound 1 µM, first compound 3.16 µM
[24] = second compound 1 µM, first compound 10 µM
[25] = second compound 3.16 µM, first compound 0.0316 µM
[26] = second compound 3.16 µM, first compound 0.1 µM
[27] = second compound 3.16 µM, first compound 0.316 µM
[28] = second compound 3.16 µM, first compound 1 µM
[29] = second compound 3.16 µM, first compound 3.16 µM
[30] = second compound 3.16 µM, first compound 10 µM
[31] = second compound 10 µM, first compound 0.0316 µM
[32] = second compound 10 µM, first compound 0.1 µM
[33] = second compound 10 µM, first compound 0.316 µM
[34] = second compound 10 µM, first compound 1 µM
[35] = second compound 10 µM, first compound 3.16 µM
[36] = second compound 10 µM, first compound 10 µM
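Also: spheroids exposed to compounds for seven days before reading.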
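For viability, T/C in this document: percent viability relative to DMSO vehicle control taken as 100%.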

`CC1COCCN1c1cc(C2(O)CC3CCC(C2)O3)c2cnn(-c3ccn[nH]3)c2n1` (stereo not drawn) + Cc1[nH]c2ccc(F)cc2c1-c1nc2c3cccnc3c3ncccc3c2[nH]1 gave an IC50 (second compound 0.0316 µM) of 31.6 nM, an IC50 (second compound 0.1 µM) of over 10000 nM and an IC50 (second compound 0.316 µM) of over 10000 nM. The IC50 (second compound 1 µM) was over 10000 nM, the IC50 (second compound 3.16 µM) was under 31.6 nM and the IC50 (second compound 10 µM) was over 10000 nM. For the same compound, the viability, T/C [1] was 74.6%, the viability, T/C [2] was 47.4% and the viability, T/C [3] was 48.1%. The viability, T/C [4] was 48%, the viability, T/C [5] was 87.5% and the viability, T/C [6] was 92%. The viability, T/C [7] was 73.3%, the viability, T/C [8] was 55.9% and the viability, T/C [9] was 42.1%. For the same compound, the viability, T/C [10] was 62.2%, the viability, T/C [11] was 88% and the viability, T/C [12] was 90.3%. The viability, T/C [13] was 85.4%, the viability, T/C [14] was 52.6% and the viability, T/C [15] was 37.4%. For the same compound, the viability, T/C [16] was 79.1%, the viability, T/C [17] was 97.1% and the viability, T/C [18] was 109%. For the same compound, the viability, T/C [19] was 70.4%, the viability, T/C [20] was 39.1% and the viability, T/C [21] was 44.1%. For the same compound, the viability, T/C [22] was 79.9%, the viability, T/C [23] was 98.2% and the viability, T/C [24] was 114%. The viability, T/C [25] was 51.7%, the viability, T/C [26] was 43.8% and the viability, T/C [27] was 49.8%. It also gave a viability, T/C [28] of 82.9%, a viability, T/C [29] of 90.8% and a viability, T/C [30] of 90.8%. The viability, T/C [31] was 54.7%, the viability, T/C [32] was 47.8% and the viability, T/C [33] was 51.2%. For the same compound, the viability, T/C [34] was 85.4%, the viability, T/C [35] was 84.5% and the viability, T/C [36] was 90.8%.

`CC1COCCN1c1cc(C2(S(C)(=N)=O)CC2)nc(-c2ccnc3[nH]ccc23)n1` (stereo not drawn) + Cc1[nH]c2ccc(F)cc2c1-c1nc2c3cccnc3c3ncccc3c2[nH]1 was tested, and the IC50 (second compound 0.0316 µM) was 3010 nM, the IC50 (second compound 0.1 µM) was 2350 nM and the IC50 (second compound 0.316 µM) was 5490 nM. For the same compound, the IC50 (second compound 1 µM) was 3470 nM, the IC50 (second compound 3.16 µM) was 2280 nM and the IC50 (second compound 10 µM) was over 10000 nM. It also gave a viability, T/C [1] of 99.6%, a viability, T/C [2] of 84.9% and a viability, T/C [3] of 90.2%. For the same compound, the viability, T/C [4] was 62.4%, the viability, T/C [5] was 52% and the viability, T/C [6] was 41.5%. The viability, T/C [7] was 78.9%, the viability, T/C [8] was 83.8% and the viability, T/C [9] was 92.3%. The viability, T/C [10] was 62.2%, the viability, T/C [11] was 48.9% and the viability, T/C [12] was 42.5%. It also gave a viability, T/C [13] of 106%, a viability, T/C [14] of 84.9% and a viability, T/C [15] of 88.2%. The viability, T/C [16] was 72.6%, the viability, T/C [17] was 56.2% and the viability, T/C [18] was 41.7%. It also gave a viability, T/C [19] of 70.3%, a viability, T/C [20] of 90.4% and a viability, T/C [21] of 78.8%. The viability, T/C [22] was 66.7%, the viability, T/C [23] was 51.4% and the viability, T/C [24] was 45.2%. The viability, T/C [25] was 69.4%, the viability, T/C [26] was 79.4% and the viability, T/C [27] was 67.5%. The viability, T/C [28] was 57.3%, the viability, T/C [29] was 48.4% and the viability, T/C [30] was 40.2%. For the same compound, the viability, T/C [31] was 81.6%, the viability, T/C [32] was 63.7% and the viability, T/C [33] was 65.6%. For the same compound, the viability, T/C [34] was 50.4%, the viability, T/C [35] was 50.7% and the viability, T/C [36] was 54.3%.

In the case of `CCc1c2c(nc3ccc(O)cc13)-c1cc3c(c(=O)n1C2)COC(=O)[C@]3(O)CC` + Cc1[nH]c2ccc(F)cc2c1-c1nc2c3cccnc3c3ncccc3c2[nH]1, the IC50 (second compound 0.0316 µM) is reported as 2.5 nM, the IC50 (second compound 0.1 µM) is reported as 2.17 nM and the IC50 (second compound 0.316 µM) is reported as under 0.999 nM. For the same compound, the IC50 (second compound 1 µM) was 1.99 nM, the IC50 (second compound 3.16 µM) was 1.44 nM and the IC50 (second compound 10 µM) was under 0.999 nM. It also gave a viability, T/C (second compound 0.0316 µM, first compound 0.000999 µM) of 61.3%, a viability, T/C (second compound 0.0316 µM, first compound 0.00316 µM) of 43.6% and a viability, T/C (second compound 0.0316 µM, first compound 0.00999 µM) of 41.5%. It also gave a viability, T/C [1] of 41.4%, a viability, T/C (second compound 0.0316 µM, first compound 0.0999 µM) of 36.3% and a viability, T/C [3] of 30.3%. The viability, T/C (second compound 0.1 µM, first compound 0.000999 µM) was 60%, the viability, T/C (second compound 0.1 µM, first compound 0.00316 µM) was 44.6% and the viability, T/C (second compound 0.1 µM, first compound 0.00999 µM) was 38%. The viability, T/C [7] was 34.3%, the viability, T/C (second compound 0.1 µM, first compound 0.0999 µM) was 38.7% and the viability, T/C [9] was 28.1%. The viability, T/C (second compound 0.316 µM, first compound 0.000999 µM) was 52.8%, the viability, T/C (second compound 0.316 µM, first compound 0.00316 µM) was 40.8% and the viability, T/C (second compound 0.316 µM, first compound 0.00999 µM) was 39.5%. The viability, T/C [13] was 45%, the viability, T/C (second compound 0.316 µM, first compound 0.0999 µM) was 39.2% and the viability, T/C [15] was 25.9%. For the same compound, the viability, T/C (second compound 1 µM, first compound 0.000999 µM) was 55.8%, the viability, T/C (second compound 1 µM, first compound 0.00316 µM) was 45.6% and the viability, T/C (second compound 1 µM, first compound 0.00999 µM) was 39.9%. The viability, T/C [19] was 38%, the viability, T/C (second compound 1 µM, first compound 0.0999 µM) was 38.3% and the viability, T/C [21] was 31.2%. The viability, T/C (second compound 3.16 µM, first compound 0.000999 µM) was 54.3%, the viability, T/C (second compound 3.16 µM, first compound 0.00316 µM) was 40.9% and the viability, T/C (second compound 3.16 µM, first compound 0.00999 µM) was 36.4%. For the same compound, the viability, T/C [25] was 35.4%, the viability, T/C (second compound 3.16 µM, first compound 0.0999 µM) was 37.7% and the viability, T/C [27] was 31.6%. The viability, T/C (second compound 10 µM, first compound 0.000999 µM) was 48.8%, the viability, T/C (second compound 10 µM, first compound 0.00316 µM) was 41.5% and the viability, T/C (second compound 10 µM, first compound 0.00999 µM) was 44%. It also gave a viability, T/C [31] of 40.7%, a viability, T/C (second compound 10 µM, first compound 0.0999 µM) of 34.2% and a viability, T/C [33] of 27.7%.

For `Cc1cccc(N(C)C(=O)C2C(O)CCN2c2nc(C)cc(C(F)(F)F)c2C#N)c1` (stereo not drawn) + Cc1[nH]c2ccc(F)cc2c1-c1nc2c3cccnc3c3ncccc3c2[nH]1, the IC50 (second compound 0.0316 µM) was over 10000 nM, the IC50 (second compound 0.1 µM) was over 10000 nM and the IC50 (second compound 0.316 µM) was over 10000 nM. The IC50 (second compound 1 µM) was over 10000 nM, the IC50 (second compound 3.16 µM) was over 10000 nM and the IC50 (second compound 10 µM) was over 10000 nM. For the same compound, the viability, T/C [1] was 107%, the viability, T/C [2] was 95.2% and the viability, T/C [3] was 102%. It also gave a viability, T/C [4] of 79.5%, a viability, T/C [5] of 116% and a viability, T/C [6] of 108%. For the same compound, the viability, T/C [7] was 88.8%, the viability, T/C [8] was 92.2% and the viability, T/C [9] was 116%. The viability, T/C [10] was 82.8%, the viability, T/C [11] was 99.9% and the viability, T/C [12] was 107%. It also gave a viability, T/C [13] of 89.9%, a viability, T/C [14] of 92.9% and a viability, T/C [15] of 97.4%. The viability, T/C [16] was 98.3%, the viability, T/C [17] was 115% and the viability, T/C [18] was 114%. The viability, T/C [19] was 92.7%, the viability, T/C [20] was 101% and the viability, T/C [21] was 111%. It also gave a viability, T/C [22] of 103%, a viability, T/C [23] of 120% and a viability, T/C [24] of 93.1%. For the same compound, the viability, T/C [25] was 80.2%, the viability, T/C [26] was 96.1% and the viability, T/C [27] was 89.6%. For the same compound, the viability, T/C [28] was 84.1%, the viability, T/C [29] was 104% and the viability, T/C [30] was 96.4%. The viability, T/C [31] was 82.5%, the viability, T/C [32] was 86.8% and the viability, T/C [33] was 100%. For the same compound, the viability, T/C [34] was 86.9%, the viability, T/C [35] was 90.1% and the viability, T/C [36] was 96.9%.
